Experiment: Solubility in polyvinylphenol/tetramethylammonium hydroxide (TMAH) aqueous solution
Format: physicochemical
Settings: mass ratio of compound to polyvinylphenol in saturated solution; polyvinylphenol in 3% TMAH aqueous solution; visual check, left to stand one day
Procedure: In a screw-top tube were put 0.36 g of polyvinylphenol (S-2P from Maruzen Petrochemical Co., Ltd.; Mw: 5800) and 10.00 g of a 3% TMAH aqueous solution and heated to dissolve. A 2.00 g portion of the resulting solution was put in another screw-top tube, and a small amount of each of the trifluoromethanesulfonate of each of compound Nos. 1 and 5 and comparative compound No. 1 (intermediate No. 4 obtained in step 1 of Example 1-4) was added thereto and heated. A visual check was made to see whether the compound dissolved. This operation was repeated until saturation. The saturated solution was allowed to stand one day to make sure that no solid precipitated. The mass ratio of each compound to the polyvinylphenol of the saturated solution was taken as a parameter of solubility.

Row | Solubility (%) | SMILES
1 | 70 | O=C(c1ccccc1)c1ccc(Sc2ccc([S+](c3ccc(O)cc3)c3ccc(O)cc3)cc2)c(F)c1
2 | 28 | O=C(c1ccc(O)cc1)c1ccc(Sc2ccc([S+](c3ccc(F)cc3)c3ccc(F)cc3)cc2)c(F)c1
3 | < 1 | O=C(c1ccccc1)c1ccc(Sc2ccc([S+](c3ccc(F)cc3)c3ccc(F)cc3)cc2)c(F)c1 [Comp. Compound No. 1, reference compound]
